Drawing on patent US4264765A, “Salts of erythromycin A esters” (priority 1980, dated 1981), this text covers ED50 for nine compounds.

The subject of the first test is Staph, Aureus (Smith). Kind of test: standard test using mice infected with Staph, Aureus (Smith), subcutaneous treatment. It is filed as in vivo. The following applies: Staphylococcus aureus, sc, pH 7.4, read-out: CD 50, mice, subcutaneous, isotonic or pH 7.4 buffered aqueous solution; LD 50 column prints 100. On the procedure: The above compounds were tested per their antibacterial uses in a standard test, using mice infected with Staph, Aureus (Smith). […] The compounds of the above examples were administered subcutaneously as isotonic solutions or aqueous solutions buffered to a pH of 7.4.
As to `CCOC(=O)CCC(=O)O[C@H]1[C@H](O[C@@H]2[C@@H](C)[C@H](O[C@H]3C[C@@](C)(OC)[C@@H](O)[C@H](C)O3)[C@@H](C)C(=O)O[C@H](CC)[C@@](C)(O)[C@H](O)[C@@H](C)C(=O)[C@H](C)C[C@@]2(C)O)O[C@H](C)C[C@@H]1[N+](C)(C)COC(=O)c1ccccc1` [Example 5, 2'-ethylsuccinyl-N-benzoyloxymethyl erythromycin A iodide], the ED50 was 52 mg/kg.

Regarding `CCOC(=O)CCC(=O)O[C@H]1[C@H](O[C@@H]2[C@@H](C)[C@H](O[C@H]3C[C@@](C)(OC)[C@@H](O)[C@H](C)O3)[C@@H](C)C(=O)O[C@H](CC)[C@@](C)(O)[C@H](O)[C@@H](C)C(=O)[C@H](C)C[C@@]2(C)O)O[C@H](C)C[C@@H]1[N+](C)(C)COC(=O)CC` [Example 7, 2'-ethylsuccinyl-N-propionyloxymethyl erythromycin A iodide], the ED50 came out at 24 mg/kg.

Staying with this test, now noted: Staphylococcus aureus, sc, pH 7.4, read-out: CD 50, mice, subcutaneous, isotonic or pH 7.4 buffered aqueous solution; inoculation (a): LD50 of 10-100.
As for `CCC(=O)O[C@H]1[C@H](O[C@@H]2[C@@H](C)[C@H](O[C@H]3C[C@@](C)(OC)[C@@H](O)[C@H](C)O3)[C@@H](C)C(=O)O[C@H](CC)[C@@](C)(O)[C@H](O)[C@@H](C)C(=O)[C@H](C)C[C@@]2(C)O)O[C@H](C)C[C@@H]1[N+](C)(C)COC(=O)C(C)(C)C` [Example 1, 2'-propionyl-N-pivalyloxymethylerythromycin A iodide], the ED50 amounted to 88 mg/kg.

As to `CCOC(=O)CCC(=O)O[C@H]1[C@H](O[C@@H]2[C@@H](C)[C@H](O[C@H]3C[C@@](C)(OC)[C@@H](O)[C@H](C)O3)[C@@H](C)C(=O)O[C@H](CC)[C@@](C)(O)[C@H](O)[C@@H](C)C(=O)[C@H](C)C[C@@]2(C)O)O[C@H](C)C[C@@H]1[N+](C)(C)COC(=O)C(C)(C)C` [Example 3, 2'-ethylsuccinyl-N-pivalyloxymethyl erythromycin A chloride], the ED50 was 58 mg/kg.

For the compound `CC[C@H]1OC(=O)[C@H](C)[C@@H](O[C@H]2C[C@@](C)(OC)[C@@H](O)[C@H](C)O2)[C@H](C)[C@@H](O[C@@H]2O[C@H](C)C[C@H]([N+](C)(C)COC(=O)C(C)(C)C)[C@H]2OC(=O)CCC(=O)O)[C@](C)(O)C[C@@H](C)C(=O)[C@H](C)[C@@H](O)[C@]1(C)O` [Example 10, 2'-succinyl-N-pivalyloxymethyl erythromycin A chloride], the ED50 was 37 mg/kg.

Take `CCOC(=O)CCC(=O)O[C@H]1[C@H](O[C@@H]2[C@@H](C)[C@H](O[C@H]3C[C@@](C)(OC)[C@@H](O)[C@H](C)O3)[C@@H](C)C(=O)O[C@H](CC)[C@@](C)(O)[C@H](O)[C@@H](C)C(=O)[C@H](C)C[C@@]2(C)O)O[C@H](C)C[C@@H]1[N+](C)(C)COC(=O)CCCCCC(=O)O` [Example 14, 2'-ethylsuccinyl-N-pimelyloxymethyl erythromycin chloride]: the ED50 stood at 47 mg/kg.

The same test, now with this note: Staphylococcus aureus, sc, pH 7.4, read-out: CD 50, mice, subcutaneous, isotonic or pH 7.4 buffered aqueous solution; inoculation (b): LD50 of 100-1000.
On to `CCOC(=O)CCC(=O)O[C@H]1[C@H](O[C@@H]2[C@@H](C)[C@H](O[C@H]3C[C@@](C)(OC)[C@@H](O)[C@H](C)O3)[C@@H](C)C(=O)O[C@H](CC)[C@@](C)(O)[C@H](O)[C@@H](C)C(=O)[C@H](C)C[C@@]2(C)O)O[C@H](C)C[C@@H]1[N+](C)(C)COC(=O)C(C)(C)C` [Example 2, 2'-ethylsuccinyl-N-pivalyloxymethylerythromycin A iodide], for which the ED50 was found to be 143 mg/kg.

Regarding `CCC(=O)O[C@H]1[C@H](O[C@@H]2[C@@H](C)[C@H](O[C@H]3C[C@@](C)(OC)[C@@H](O)[C@H](C)O3)[C@@H](C)C(=O)O[C@H](CC)[C@@](C)(O)[C@H](O)[C@@H](C)C(=O)[C@H](C)C[C@@]2(C)O)O[C@H](C)C[C@@H]1[N+](C)(C)COC(=O)c1ccccc1` [Example 4, 2'-propionyl-N-benzoyloxymethyl erythromycin A chloride], the ED50 was determined as 40 mg/kg.

For `CC[C@H]1OC(=O)[C@H](C)[C@@H](O[C@H]2C[C@@](C)(OC)[C@@H](O)[C@H](C)O2)[C@H](C)[C@@H](O[C@@H]2O[C@H](C)C[C@H]([N+](C)(C)COC(=O)C(C)(C)C)[C@H]2OC(=O)CCCC(=O)O)[C@](C)(O)C[C@@H](C)C(=O)[C@H](C)[C@@H](O)[C@]1(C)O` [Example 12, 2'-glutaryl-N-pivalyloxymethyl erythromycin A chloride], the ED50 was 73 mg/kg.
